Entries after “also recorded” stand apart in the source; their conditions may differ. Ends that are not written are not given here.
Tests used:
L. monocytogenes CBC2 = assay: Deferred antagonism assay; format: cell-based, Listeria monocytogenes; set-up: key: + = Enhanced bioactivity relative to control; − = Bioactivity equal to or less than control; NA = no activity evident; conditions: producing strain; L. mono CBC2
How it was run: (§1)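 Producer strains replicated on GM17 or GM17 x-gal agar, grown overnight, then overlaid with 0.75% agar seeded with indicator strain. Zone size = diameter of clearing minus 5 mm growth diameter. Purified nisins tested by well diffusion at 37° C overnight; activity in AU/ml from reciprocal of highest active dilution × 20.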

L. monocytogenes CBC3 = assay: Deferred antagonism assay; format: cell-based, Listeria monocytogenes; set-up: key: + = Enhanced bioactivity relative to control; − = Bioactivity equal to or less than control; NA = no activity evident; conditions: producing strain; L. mono CBC3
How it was run: as §1

L. monocytogenes CBC1 = assay: Deferred antagonism assay; format: cell-based, Listeria monocytogenes; set-up: key: + = Enhanced bioactivity relative to control; − = Bioactivity equal to or less than control; NA = no activity evident; conditions: producing strain; L. mono CBC1
How it was run: as §1

L. plantarum CBC6 = assay: Deferred antagonism assay; format: cell-based, Lactobacillus plantarum; set-up: key: + = Enhanced bioactivity relative to control; − = Bioactivity equal to or less than control; NA = no activity evident; conditions: producing strain
How it was run: as §1

Staph. aureus DPC5245 = assay: Deferred antagonism assay; format: cell-based; conditions: producing strain; diameter of zone minus 5 mm; average of duplicates; St. aureus DPC5245
How it was run: (§2)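 Producer strains replicated on GM17 agar, grown overnight, then overlaid with soft agar (0.75% w/v) seeded with indicator strain. Zone size = clearing diameter minus 5 mm growth diameter, relative to NZ9800 pCI372nisA control; mean of duplicates.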

[1] = test system: Staph. aureus ST528 (MRSA); assay: Deferred antagonism assay; format: cell-based; conditions: producing strain, diameter of zone minus diameter of bacterial growth (5 mm), average of duplicates
How it was run: as §2

[2] = test system: Strep. agalactiae ATCC13813; assay: Deferred antagonism assay; format: cell-based; conditions: producing strain, diameter of zone minus 5 mm, average of duplicates
L. lactis CBC8 = assay: Deferred antagonism assay; format: cell-based; set-up: key: + = Enhanced bioactivity relative to control; − = Bioactivity equal to or less than control; NA = no activity evident; conditions: producing strain
How it was run: as §1

L. lactis CBC7 = assay: Deferred antagonism assay; format: cell-based; set-up: key: + = Enhanced bioactivity relative to control; − = Bioactivity equal to or less than control; NA = no activity evident; conditions: producing strain
How it was run: as §1

S. aureus CBC4 = assay: Deferred antagonism assay; format: cell-based; set-up: key: + = Enhanced bioactivity relative to control; − = Bioactivity equal to or less than control; NA = no activity evident; conditions: producing strain
How it was run: as §1

C. sporogenes CBC5 = assay: Deferred antagonism assay; format: cell-based, Clostridium sporogenes; set-up: key: + = Enhanced bioactivity relative to control; − = Bioactivity equal to or less than control; NA = no activity evident; conditions: producing strain
indicator strains = assay: Deferred antagonism assays, various indicator strains (summary); format: cell-based; conditions: for bioactivity of the producing strain, in words: in general / against the strains tested; for Strain(s) against which the derivative (producing strain) displays enhanced bioactivity: relative to nisin A-producing control, value = strains listed
How it was run: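 Producer strains were replicated on GM17 or GM17 x-gal agar, grown overnight, then overlaid with GM17, BHI, TS or MH soft agar (0.75% w/v) seeded with the indicator strain. Zone size was taken as the clearing diameter minus the diameter of bacterial growth (5 mm).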

Substance	Bioactivity relative to control (L. monocytogenes CBC2)	Bioactivity relative to control (L. monocytogenes CBC3)	Bioactivity relative to control (L. monocytogenes CBC1)	Bioactivity relative to control (L. plantarum CBC6)	zone size relative to that of the NZ9800 pCI372nisA control (Staph. aureus DPC5245) [%]	zone size relative to that of the NZ9800 pCI372nisA control [1] [%]	zone size relative to that of the NZ9800 pCI372nisA control [2] [%]	Bioactivity relative to control (L. lactis CBC8)	Bioactivity relative to control (L. lactis CBC7)	Bioactivity relative to control (S. aureus CBC4)	Bioactivity relative to control (C. sporogenes CBC5)	bioactivity of the producing strain, in words (indicator strains)	Strain(s) against which the derivative (producing strain) displays enhanced bioactivity (indicator strains)
NisinA K22Q (ITSISLCTPGCKTGALMGCNMQTATCHCSIHVSK; not fully specified; also: lantibiotic nisin: dehydrated residues and thioether rings not placed; UniProt P13068 24-57, looked up, variant K22Q) [nisin A derivative, hinge substitution K22Q]	−	−	−	−	77	82	82	+	−	−	−	slightly diminished bioactivity	L. lactis CBC8
NisinA K22V	+	−	−	−	113	107	126	+	−	−	−		L. monocytogenes CBC2 and L. lactis CBC8
NisinA M21A (ITSISLCTPGCKTGALMGCNAKTATCHCSIHVSK; not fully specified; also: lantibiotic nisin: dehydrated residues and thioether rings not placed; UniProt P13068 24-57, looked up, variant M21A) [nisin A derivative, hinge substitution M21A]	−	−	+	−	135	132.5	105	+	+	−	−		L. monocytogenes CBC1 and L. lactis CBCT and CBC8; also recorded: L. monocytogenes CBC1 , and L. lactis CBC7 and CBC8; also recorded: L. monocytogenes CBC1, L. lactis CBC7, CBC8, S. aureus
NisinA M21K (ITSISLCTPGCKTGALMGCNKKTATCHCSIHVSK; not fully specified; also: lantibiotic nisin: dehydrated residues and thioether rings not placed; UniProt P13068 24-57, looked up, variant M21K) [nisin A derivative, hinge substitution M21K]	−	−	−	−	104	89	91	−	−	+	+	close to wild-type bioactivities	Staph. aureus CBC4 and C. sporogenes CBC5; also recorded: S. aureus CBC 4 and C. sporogenes CBC5; also recorded: S. aureus CBC4, C. sporogenes CBC5
NisinA M21N	−	−	−	−	90	95	98	+	−	−	−	approximately wild type bioactivity	L. lactis CBC8
NisinA N20A	−	−	−	−	69	60.5	52	−	−	−	+		C. sporogenes CBC5
NisinA N20F (ITSISLCTPGCKTGALMGCFMKTATCHCSIHVSK; not fully specified; also: lantibiotic nisin: dehydrated residues and thioether rings not placed; UniProt P13068 24-57, looked up, variant N20F) [nisin A derivative, hinge substitution N20F]	−	−	−	−	20.5	11.25	15	−	+	−	−		L. lactis CBC7
NisinA N20H (ITSISLCTPGCKTGALMGCHMKTATCHCSIHVSK; not fully specified; also: lantibiotic nisin: dehydrated residues and thioether rings not placed; UniProt P13068 24-57, looked up, variant N20H) [nisin A derivative, hinge substitution N20H]	−	+	−	−	95	74.5	59.5	−	−	+	+		L. monocytogenes CBC3, S. aureus CBC4 and C. sporogenes CBC5

Reference: US8987193B2, “Nisin derivatives and the use thereof” (University College Cork—National University of Ireland, Cork, priority 2008, dated 2015)
